Reference: PubChem BioAssay (NCI)
Several values for one entry are separate records, joined by “and”; a condition that tells them apart may be missing. Equal values may be shown once.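 Dose response: 5 concentrations. Exposure: 48 h. Format: 96-well plates. Endpoint: linear interpolation; highest concentration if not reached. GI50 is the concentration that inhibits growth by half. Definition used: TGI = concentration required for complete inhibition of growth.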

Key:
Assay in all cases: NCI-60 cell line screen, 48 h
HCT-15 colon = tested on: HCT-15 colon
K-562 leukemia = tested on: K-562 leukemia
MALME-3M melanoma = tested on: MALME-3M melanoma
MCF7 breast = tested on: MCF7 breast
NCI-H23 lung = tested on: NCI-H23 lung
SF-539 CNS = tested on: SF-539 CNS
SK-MEL-5 melanoma = tested on: SK-MEL-5 melanoma
SN12C renal = tested on: SN12C renal
SNB-19 CNS = tested on: SNB-19 CNS
UO-31 renal = tested on: UO-31 renal

Row | Compound | GI50 (HCT-15 colon) | TGI (HCT-15 colon) | GI50 (K-562 leukemia) | TGI (K-562 leukemia) | GI50 (MALME-3M melanoma) | TGI (MALME-3M melanoma) | GI50 (MCF7 breast) | TGI (MCF7 breast) | GI50 (NCI-H23 lung) | TGI (NCI-H23 lung) | GI50 (SF-539 CNS) | TGI (SF-539 CNS) | GI50 (SK-MEL-5 melanoma) | TGI (SK-MEL-5 melanoma) | GI50 (SN12C renal) | TGI (SN12C renal) | GI50 (SNB-19 CNS) | TGI (SNB-19 CNS) | GI50 (UO-31 renal) | TGI (UO-31 renal)
1 | CC1C(C)N(C(=O)CCl)c2ccccc2N1C(=O)CCl (stereo not drawn) | 0.304 µM | 1.28 µM | 0.282 µM | 2.37 µM | 0.365 µM | 1.32 µM | 0.318 µM | 1.6 µM | 0.705 µM | 2.68 µM | 1.4 µM | 2.89 µM | 1.27 µM | 2.85 µM | 0.793 µM | 3.05 µM | 2.16 µM | 5.4 µM | 0.168 µM | 0.346 µM
2 | CC(C)(C)c1ccc(Oc2ccc(N)cn2)cc1 | 43.9 µM | > 100 µM | 30.1 µM | > 100 µM | 39.7 µM | > 100 µM | 46.5 µM | > 100 µM | 53 µM | > 100 µM | 18.8 µM | > 100 µM | 25.8 µM | 79.2 µM | 4.64 µM | > 100 µM | > 100 µM | > 100 µM | 1.75 µM | > 100 µM
3 | CC1=C2[C@@H](CC1)[C@]1(C)O[C@@](C(C)C)(C[C@H]1OC(=O)CO)[C@H]2OC(=O)C1CC1c1ccccc1 (stereo partly drawn) | 13 µM | 27.6 µM | 12.2 µM | 36.5 µM | 16.5 µM | 33.4 µM | 8.98 µM | 27.8 µM | 14.2 µM | 32.4 µM | 17.1 µM | 33.8 µM | 15.2 µM | 28.8 µM | 9.36 µM | 27.6 µM | 16.7 µM | 34.6 µM | 9.49 µM | 25.1 µM
4 | C=C/C=C/[C@@H](O)CC(=C)C[C@H]1OC2[C@H](C)[C@@H](OC(=O)C[C@H]3C[C@H](OC(C)=O)C[C@@]4(C[C@@](C)(O)C[C@H](CC(=C)[C@@H](C)[C@H](OC(C)=O)[C@H](C)C(=O)C[C@@H]5C[C@H](OC)CC6(C[C@@H](O)C[C@H](/C=C\CCC[C@H]7O[C@](O)(C=C[C@H]7C)[C@H]2O)O6)O5)O4)O3)[C@@H]1O | 0.00619 µM and 0.0025 µM | > 9.46 µM | – | > 25 µM | 0.0025 µM | – | < 0.0025 µM | < 0.0025 µM | 0.000475 µM and < 0.0025 µM | < 0.0025 µM | < 0.0025 µM | < 0.0025 µM | 0.000327 µM and 0.0025 µM | 0.00571 µM and 0.00327 µM | 0.000339 µM and 0.0025 µM | – | 0.000625 µM and 0.0025 µM | > 25 µM | – | > 10.9 µM
5 | CC1=C(c2ccccc2)C(O)(c2ccccc2)C(C)C1=O (stereo not drawn) | 31.4 µM | > 100 µM | 4.71 µM | > 100 µM | 27.7 µM | > 100 µM | 13 µM | > 100 µM | 10.1 µM | 46.4 µM | 17.1 µM | > 100 µM | 14 µM | > 100 µM | 15.4 µM | > 100 µM | 35.5 µM | > 100 µM | 13.2 µM | > 100 µM
6 | COC(=O)c1ccc(CN2C(=O)C(Cl)=C(Nc3cccc(Cl)c3C)C2=O)cc1 | 28.4 µM | 78.9 µM | 4.32 µM | 21.1 µM | 2.03 µM | 9.82 µM | 35.6 µM | > 100 µM | 10.3 µM | > 100 µM | 23.1 µM | 58.7 µM | 1.08 µM | 3.94 µM | 18.2 µM | 55.4 µM | > 100 µM | > 100 µM | 15.1 µM | > 100 µM
7 | CCC(C)Nc1ccc(N)cc1 (stereo not drawn) | 3.84 µM | 15.6 µM | 2.36 µM | 10.4 µM | 2.65 µM | 8.08 µM | 3.41 µM | 12.4 µM | 2.89 µM | 8.89 µM | 5.16 µM | 17.1 µM | 2.86 µM | 9.05 µM | 2.95 µM | 12.9 µM | 8.42 µM | 52.5 µM | 3.3 µM | 14 µM
8 | CNC(=O)c1cc(Oc2ccc(NC(=O)Nc3ccc(Cl)c(C(F)(F)F)c3)c(F)c2)ccn1 | 3 µM and 2.35 µM | > 32.9 µM and 9.96 µM | 1.21 µM and 1.81 µM | 7.13 µM and > 10 µM | 0.76 µM and 1.95 µM | 5.87 µM and > 10 µM | 2.12 µM and 2.29 µM | 6.88 µM and 9.02 µM | 1.42 µM and 1.44 µM | 6.29 µM and 7.14 µM | 2.15 µM and 1.45 µM | 10.7 µM and > 10 µM | 1.5 µM and 1.35 µM | 2.94 µM and 3.16 µM | 2.35 µM and 2.24 µM | 12.1 µM and > 10 µM | 4.27 µM and 4.06 µM | > 41.6 µM | 1.53 µM and 1.82 µM | 4.22 µM and > 10 µM
9 | CCc1ccc(CCC(=O)Nc2ncc(Cc3ccc(Cl)cc3)s2)o1 | 0.356 µM | > 100 µM | 0.365 µM | > 100 µM | 0.466 µM | > 100 µM | 0.328 µM | > 100 µM | 1.53 µM | > 100 µM | 0.245 µM | 0.727 µM | 0.377 µM | > 100 µM | 0.753 µM | > 100 µM | 0.463 µM | > 100 µM | 0.65 µM | > 100 µM
10 | Nc1nc([Se])c2ncn(C3OC(CO)C(O)C3O)c2n1 (stereo not drawn) | 7.84 µM | > 100 µM | 5.59 µM | > 100 µM | > 100 µM | > 100 µM | 4.09 µM | > 100 µM | 5.05 µM | > 100 µM | 19.3 µM | > 100 µM | 25.2 µM | 89.6 µM | 52.9 µM | > 100 µM | > 100 µM | > 100 µM | 24.3 µM | > 100 µM
11 | COc1ccc2c(c1)c(-c1nc(-c3c[nH]c4ccncc34)cs1)cn2C | 1.25 µM | 2.58 µM | 0.716 µM | 2.47 µM | 1.74 µM | 3.28 µM | 1.47 µM | 3.09 µM | 1.82 µM | 3.39 µM | 1.65 µM | 3.09 µM | 1.65 µM | 3.02 µM | 1.69 µM | 3.24 µM | 1.85 µM | 3.36 µM | 1.58 µM | 2.97 µM
12 | CCOC(=O)Oc1cc2c(c(OC)c1OC)-c1ccc(OC)c(=O)cc1C(NC(C)=O)CC2 (stereo not drawn) | – | > 100 µM | – | > 81.3 µM | – | > 100 µM | – | > 100 µM | – | 8.82 µM | – | 0.232 µM | – | 0.14 µM | – | > 100 µM | – | 92.4 µM | – | > 100 µM
13 | CCC(C)[C@H](NC(=O)Nc1cc(C(F)(F)F)cc(C(F)(F)F)c1)C(=O)N[C@@H](Cc1cn(C)cn1)C(=O)OC (stereo partly drawn) | 1.4 µM | 2.21 µM | 1.06 µM | 2.44 µM | 1.41 µM | 2.01 µM | 0.513 µM | 1.08 µM | 6.15 µM | – | 1.32 µM | 1.83 µM | 0.59 µM | 1.27 µM | 0.544 µM | 1.05 µM | 0.672 µM | 1.52 µM | 1.52 µM | 2.31 µM
14 | Cc1ccc(S(=O)(=O)SC(C)(C)C)cc1 | – | 53 µM | – | 54.4 µM | – | > 62 µM | – | 42.1 µM | – | 19.5 µM | – | > 77.8 µM | – | > 100 µM | – | > 65.2 µM | – | > 100 µM | – | > 100 µM
15 | Cc1cc2c(cc1Cl)S/C(=C/C(=O)O)C(Nc1ccc3ncsc3c1)=NS2(=O)=O | 27.4 µM | > 65.5 µM | 42.8 µM | > 100 µM | > 35.3 µM | > 55.4 µM | 8.75 µM | > 92.5 µM | > 14.3 µM | > 22.5 µM | 9.66 µM | > 34.6 µM | > 14.6 µM | > 24 µM | 16.5 µM | > 64.8 µM | > 34.3 µM | > 56.2 µM | 14.8 µM | > 50.7 µM
16 | COc1ncc(Nc2ncc([C@@H](C)N3CCN(S(C)(=O)=O)CC3)cc2-c2nc(C)nc(N)n2)cc1F | 0.198 µM | > 100 µM | 14.3 µM | > 100 µM | 0.199 µM | 10.5 µM | 0.0147 µM | > 100 µM | 3.86 µM | > 100 µM | 0.0876 µM | 1.45 µM | 2.09 µM | 9.04 µM | 0.0686 µM | > 33.6 µM | 0.325 µM | > 66.8 µM | < 0.0114 µM | 1.89 µM
17 | C[C@]12CC[C@H]3[C@@H](CC=C4C[C@@H](N5CCCC5)CC[C@@]43C)[C@@H]1C/C(=C\c1cccc(OCCN3CCOCC3)c1)[C@@H]2O | 2.39 µM | > 100 µM | 2.34 µM | > 100 µM | 2.15 µM | 6.11 µM | 19.7 µM | 98.1 µM | 13.3 µM | 41.6 µM | 1.41 µM | 3.38 µM | 2.88 µM | 10.6 µM | 25.9 µM | > 100 µM | 4.41 µM | > 100 µM | 3.11 µM | 9.97 µM
18 | CC(C)(C)C1CCC2c3c([nH]c4ccccc34)C3C(=O)N(c4ccc(Cl)cc4)C(=O)C3C2C1 (stereo not drawn) | 52.3 µM and > 10 µM | > 100 µM | 21.1 µM and > 10 µM | 46.1 µM and > 10 µM | – | > 10 µM | – | 99.6 µM | 58.4 µM and > 10 µM | > 100 µM | > 100 µM | > 100 µM | > 100 µM | > 100 µM | 37.4 µM and > 10 µM | > 100 µM | > 100 µM | > 100 µM | > 100 µM | > 100 µM
19 | COc1ccc(C/C(=C(\C)c2ccc(OCCN3CCCC3)cc2)c2ccc(OCCN3CCCC3)cc2)cc1 | 1.51 µM | 3.05 µM | 1.53 µM | 3.6 µM | 1.67 µM | 3.26 µM | 1.6 µM | 3.1 µM | 3.67 µM | 14.1 µM | 1.8 µM | 3.25 µM | 1.72 µM | 3.11 µM | 1.67 µM | 3.2 µM | 2.12 µM | 4.75 µM | 1.56 µM | 2.94 µM
20 | COc1ccc2c(c1)nc(C(=O)c1ccco1)c(C(F)(F)F)[n+]2[O-] | > 100 µM | > 100 µM | > 100 µM | > 100 µM | > 100 µM | > 100 µM | > 100 µM | > 100 µM | > 100 µM | > 100 µM | > 100 µM | > 100 µM | > 100 µM | > 100 µM | > 100 µM | > 100 µM | > 100 µM | > 100 µM | > 100 µM | > 100 µM
